Data on 16 compounds can be found in EP4803519A1, “NOVEL PRMT5 INHIBITOR AND USE THEREOF” (Shanghai Apeiron Therapeutics Company Limited, priority 2023, dated 2025).

Some results are limits rather than exact numbers.

Type in all cases: cell-based
For one test, the system named is HCT-116 wild-type cells. The experiment in a line: Inhibitory activity on proliferation of HCT-116 wild-type cells (Cell-Titer Glo). To be noted: Homo sapiens, 144 h, incubated 6 d, 0-10,000 nM. On the procedure: Materials and cells: HCT-116 wild-type cells were purchased from Kyinno Biotechnology (China); RPMI-1640 medium, and fetal bovine serum were purchased from Thermo Fisher (United States); 384-well plates were purchased from PerkinElmer (United States); Cell-Titer Glo kit was purchased from Promega (United States).
Cell culture: HCT-116 wild-type cells were cultured in RPMI-1640 medium containing 10% fetal bovine serum at 37°C and 5% carbon dioxide. Only cells in the logarithmic growth phase could be used for the test.
Test of cell proliferation activity: Cell-Titer Glo kit was used to test the proliferation inhibitory activity of the compound on HCT-116 wild-type cells. The cell concentration was adjusted, rendering that cells were inoculated into a 384-well plate at 40 µL per well and incubated overnight at 37°C and 5% carbon dioxide. 80 nL of the compound was added to each well to reach a final concentration of 0-10,000 nM (starting concentration 10,000 nM, 2.5-fold dilution, 10 points), and the cell plate with 0.2% DMSO content was incubated at 37°C and 5% carbon dioxide for 6 d. 40 µL of Cell-Titer Glo reagent was added to test cell viability.

Test [1] concerns LU99 MTAP overexpressing cells. Description: Inhibitory activity on proliferation of LU99 MTAP overexpressing cells (Cell-Titer Glo). To be noted: Homo sapiens, Lu-99, 144 h, incubated 6 d, 0-10,000 nM. On the procedure:
Materials and cells: LU99 MTAP overexpressing cell line was purchased from Kyinno Biotechnology (China); cell culture medium and fetal bovine serum were purchased from Thermo Fisher Scientific (USA); 384-well plates were purchased from PerkinElmer (USA); Cell-Titer Glo kits were purchased from Promega (USA).
Cell culture: LU99 MTAP overexpressing cells were cultured with medium containing 10% fetal bovine serum at 37°C in 5% carbon dioxide. Only cells in the logarithmic growth phase could be used for the test.
Test of inhibitory activity on cell proliferation: The Cell-Titer Glo kit was used to test the proliferation inhibitory activity of the compounds on LU99 MTAP overexpressing cells. The cell concentration was adjusted, rendering that cells were inoculated into a 384-well plate at 40 µL per well and incubated overnight at 37°C and 5% carbon dioxide. 40 nL of the compound was added to each well to reach a final concentration of 0-10,000 nM (starting concentration 10,000 nM, 2.5-fold dilution, 10 points), and the cell plate with 0.2% DMSO content was incubated at 37°C and 5% carbon dioxide for 6 d. 40 µL of Cell-Titer Glo reagent was added to test cell viability.

The subject of test [2] is HCT-116 MTAP(-/-)deleted cells. Description: Inhibitory activity on proliferation of HCT-116 MTAP(-/-)deleted cells (Cell-Titer Glo). To be noted: Homo sapiens, 144 h, incubated 6 d, 0-1,000 nM. On the procedure: Materials and cells: HCT-116 MTAP(-/-)deleted cells were purchased from Kyinno Biotechnology (China); RPMI-1640 medium, and fetal bovine serum were purchased from Thermo Fisher (United States); 384-well plates were purchased from PerkinElmer (United States); Cell-Titer Glo kit was purchased from Promega (United States).
Cell culture: HCT116 MTAP(-/-)deleted cells were cultured with RPMI 1640 medium containing 10% fetal bovine serum at 37°C in 5% carbon dioxide. Only cells in the logarithmic growth phase could be used for the test.
(§1) Test of inhibitory activity on cell proliferation: The Cell-Titer Glo kit was used to test the proliferation inhibitory activity of the compounds on HCT-116 MTAP(-/-)deleted cells. The cell concentration was adjusted, rendering that cells were inoculated into a 384-well plate at 40 µL per well and incubated overnight at 37°C and 5% carbon dioxide. 80 nL of the compound was added into each well to reach a final concentration of 0-1,000 nM (starting concentration 1,000 nM, 2.5-fold dilution, 10 points), and the cell plate with 0.2% DMSO content was incubated at 37°C and 5% carbon dioxide for 6 d. 40 µL of Cell-Titer Glo reagent was added to test cell viability.

In test [3] the test system is LU99 MTAP(-/-)deleted cells. Description: Inhibitory activity on proliferation of LU99 MTAP(-/-)deleted cells (Cell-Titer Glo). To be noted: Homo sapiens, Lu-99, 144 h, incubated 6 d, 0-1,000 nM. How it is done: Materials and cells: LU99 MTAP deleted cell line was purchased from Kyinno Biotechnology (China); cell culture medium and fetal bovine serum were purchased from Thermo Fisher Scientific (USA); 384-well plates were purchased from PerkinElmer (USA); Cell-Titer Glo kits were purchased from Promega (USA).
Cell culture: LU99 MTAP(-/-)deleted cells were cultured with medium containing 10% fetal bovine serum at 37°C in 5% carbon dioxide. Only cells in the logarithmic growth phase could be used for the test.
as §1, with “on LU99” for “on HCT-116”, “dioxide. 40” for “dioxide. 80”, “added to” for “added into”

Turning to `CN(C(=O)c1ccc2nc(N)c3cnccc3c2c1)[C@@H]1COC(C)(C)c2cc(C(F)(F)F)ccc21` [Example 37, (S)-5-amino-N-(1,1-dimethyl-7-(trifluoromethyl)isochroman-4-yl)-N-methylbenzo[c][2,7]naph thyridine-9-carboxamide], the IC50 (as a rule, the concentration that inhibits the measured activity by half) in the test on HCT-116 wild-type cells turned out to be 4100 nM; in test [1] it was 810 nM; in test [2] it was 33.4 nM; in test [3], 36.4 nM.
On the same counts, the results for `CN(C(=O)c1ccc2nc(N)c3cnn(C)c3c2c1)C1COC(C)(C)c2cc(-n3cc(C(F)(F)F)cn3)ccc21` (stereo not shown) [Example 47, 4-amino-N-(1,1-dimethyl-7-(4-(trifluoromethyl)-1H-pyrazol-1-yl)isochroman-4-yl)-N,1-dimethyl-1H-pyrazolo[4,3-c]quinoline-8-carboxamide] are 1600 nM, 1380 nM, 5.9 nM and 7.5 nM.
The matching figures for `CN(C(=O)c1cc2c3c(c(N)nc2cn1)COC3)[C@@H]1COC2(CCC2)c2cc(C(F)(F)F)ccc21` [Example 44, (S)-4-amino-N-methyl-N-(7'-(trifluoromethyl)spiro[cyclobutane-1,1'-isochroman]-4'-yl)-1,3-dihydrofuro[3,4-c][1,7]naphthyridine-8-carboxamide]: 837 nM, 673 nM, 7.9 nM and 12.2 nM.
On the same counts, the results for `CN(C(=O)c1ccc2nc(N)c3cnn(C)c3c2c1)C1COC(C)(C)c2cc(-c3cnn(C)c3)ccc21` (stereo not shown) [Example 7, 4-amino-N-(1,1-dimethyl-7-(1-methyl-1H-pyrazol-4-yl)isochroman-4-yl)-N,1-dimethyl-1H-pyrazolo[4,3-c]quinoline-8-carboxamide] are 2520 nM, 3100 nM, 5 nM and 3.6 nM.
For `CN(C(=O)c1ccc2nc(N)c3cnn(C)c3c2c1)[C@H]1COC(C)(C)c2nc(C(F)(F)F)ccc21` [Example 51], the IC50 in the test with HCT-116 wild-type cells is 447 nM; in test [1] it was 711 nM; in test [2], 3.1 nM; in test [3], 4.9 nM.
On the same counts, the results for `CN(C(=O)c1ccc2nc(N)c3cnn(C)c3c2c1)C1COC2(CCC2)c2cc(C(F)(F)F)ccc21` (stereo not shown) [Example 30] are 767 nM, 862 nM, 5.3 nM and 10.9 nM.
On the same counts, the results for `CN(C(=O)c1cc2c3c(c(N)nc2cn1)COC3)[C@H]1COC2(CCC2)c2cc(C(F)(F)F)ccc21` [Example 45, (R)-4-amino-N-methyl-N-(7'-(trifluoromethyl)spiro[cyclobutane-1,1'-isochroman]-4'-yl)-1,3-dihydrofuro[3,4-c][1,7]naphthyridine-8-carboxamide] are over 10000 nM, over 10000 nM, 874 nM and 944 nM.
The matching figures for `CN(C(=O)c1ccc2nc(N)c3c(c2c1)OCC3)C1COC(C)(C)c2cc(C(F)(F)F)ccc21` (stereo not shown) [Example 6, 4-Amino-N-(1,1-dimethyl-7-(trifluoromethyl)isochroman-4-yl)-N-methyl-2,3-dihydrofuro[3,2-c]quinoline-8-carboxamide]: 5950 nM, 5940 nM, 269 nM and 355 nM.
Take `CN(C(=O)c1cc2c3c(c(N)nc2cn1)COC3)C1COC2(CC2)c2cc(C(F)(F)F)ccc21` (stereo not shown) [Example 40, 4-Amino-N-methyl-N-(7'-(trifluoromethyl)spiro[cyclopropane-1,1'-isochroman]-4'-yl)-1,3-dihydrofuro[3,4-c][1,7]naphthyridine-8-carboxamide]: the half-inhibitory concentration (IC50) in the test on HCT-116 wild-type cells stood at 2200 nM; in test [1] it was 2040 nM; in test [2], 13 nM; in test [3], 21.2 nM.
On the same counts, the results for `CN(C(=O)c1ccc2nc(N)c3ncncc3c2c1)[C@@H]1COC(C)(C)c2cc(C(F)(F)F)ccc21` [Example 36, N-[(4S)-1,1-dimethyl-7-(trifluoromethyl)isochroman-4-yl](5-aminopyrimido[4,5-c]quinolin-9-yl)-N-methylformamide] are 2840 nM, 668 nM, 95.1 nM and 116 nM.
On the same counts, the results for `CN(C(=O)c1cc2c(cn1)nc(N)c1cnn(C)c12)[C@H]1COC(C)(C)c2cc(C(F)(F)F)ccc21` [Example 27, (R)-4-amino-N-(1,1-dimethyl-7-(trifluoromethyl)isochroman-4-yl)-N,1-dimethyl-1H-pyrazolo[4,3-c][1,7]naphthyridine-8-carboxamide] are over 10000 nM, 9590 nM, 74 nM and 51.9 nM.
For `CN1CCN(c2ccc3c(c2)C(C)(C)OCC3N(C)C(=O)c2ccc3nc(N)c4cnn(C)c4c3c2)CC1` (stereo not shown) [Example 80], the concentration for half-maximal inhibition (IC50) came out at 3850 nM with HCT-116 wild-type cells, 3660 nM in test [1], 9.4 nM in test [2] and 16.8 nM in test [3].
On the same counts, the results for `CN(C(=O)c1cc2c3c(c(N)nc2cn1)COC3)C1COC2(CCC2)c2cc(C(F)(F)F)ccc21` (stereo not shown) [Example 29, 4-Amino-N-methyl-N-(7'-(trifluoromethyl)spiro[cyclobutane-1,1'-isochroman]-4'-yl)-1,3-dihydrofuro[3,4-c][1,7]naphthyridine-8-carboxamide] are 1790 nM, 1030 nM, 17 nM and 23.7 nM.
On the same counts, the results for `CN(C(=O)c1ccc2nc(N)c3cnn(C)c3c2c1)C1COC(C)(C)c2cc(C(F)(F)F)ncc21` (stereo not shown) [Example 43, (4-Amino-1-methylpyrazolo[4,5-c]quinolin-8-yl)-N-[1,1-dimethyl-7-(trifluoromethyl)(1,4-dihydro-3H-pyrano[4,5-c]pyridin-4-yl)]-N-methylformamide] are 2130 nM, 2570 nM, 9.4 nM and 12.3 nM.
With `CN(C(=O)c1ccc2nc(N)c3cnn(C)c3c2c1)C1COC(C)(C)c2nc(C(F)(F)F)ccc21` (stereo not shown) [Example 39], the IC50 in the test on HCT-116 wild-type cells turned out to be 1140 nM; in test [1], 1290 nM; in test [2] it was 5.2 nM; in test [3], 8.4 nM.
On the same counts, the results for `CN(C(=O)c1cc2c3c(c(N)nc2cn1)COC3)[C@H]1COC(C)(C)c2cc(C(F)(F)F)ccc21` [Example 25, (R)-4-Amino-N-(1,1-dimethyl-7-(trifluoromethyl)isochroman-4-yl)-N-methyl-1,3-dihydrofuro[3,4-c][1,7]naphthyridine-8-carboxamide] are over 10000 nM, over 10000 nM, 817 nM and 503 nM.
